Measurements taken from patent publication US20190350240A1, “Electrolyte-Enhanced Sweetener and Consumable Products Obtained” (priority 2018, published 2019).
“Also recorded” adds a separate entry of the source.

How the values were obtained:
[1] = Salt Screen #2: thick and heavy flavor before unpleasant off-flavor (taste, TAS); assay type: in vivo
From the text: The second salt screen that was employed tested whether each electrolyte salt could elicit a thick and heavy flavor before it elicited an unpleasant off-flavor, such as saltiness, bitterness, or chalkiness.

[2] = in sweetener compositions exposed to ambient air (hygroscopicity)
From the text: The third salt screen that was employed tested whether each electrolyte salt could enhance the flavor of sweetener compositions and remain shelf stable when exposed to ambient air. This screen is related to the water solubility of the salt. When salts have too much water solubility, they can become hygroscopic which means they absorb water from ambient air. Hygroscopic salts become wet and clumpy when exposed to ambient air, and they cause sweetener compositions containing them to become difficult to package and dispense because of this instability to air exposure.
This third salt screen is complementary to the first salt screen because it identifies salts with too much water solubility, while the first salt screen identifies salts with too little water solubility.

[3] = Salt Screen #4: compatibility (CMP) in sweetened cold-brewed coffee and tea; assay type: in vivo; details: sweetener compositions in cold-brewed coffee and tea, pH-sensitive flavors
Description: The fourth salt screen that was employed tested whether each electrolyte salt could enhance the sweetener compositions used to sweeten cold-brewed coffee and tea without disturbing the flavors of these pH-sensitive beverages. The disturbance of pH-sensitive flavors is an important screen because many electrolyte salts influence the pH of the beverages to which they are added. This screen was only applied to the five electrolyte salts that passed the three earlier salt screens.

[4] = Carbohydrate screen: flavor at strength of 10% sucrose in water, and mixed with the sweetener composition; assay type: in vivo; details: dissolved into one liter of water to a strength of 10% sucrose
Description: Natural sugars and sugar alcohols were screened from commercial sources as candidates for the carbohydrate composition. Refined and unrefined cane sugar, brown sugar, cane juice sugar, maple sugar, coconut sugar, glucose, fructose, and erythritol were dissolved into one liter of water to a strength of 10% sucrose and evaluated for flavor.
Both refined and unrefined cane sugar solutions were mixed with solutions containing the sweetener composition mixed to a strength of 10% sucrose.

[5] = Sugar-like flavor judged by taste judges in water versus 10% or 20% sucrose (taste, intensity, thickness, total); assay type: in vivo; details: for improvement in sugar-like flavor: at optimal dose or ratio, versus starting composition without the added ingredient (zero mg/L; pure S1); for optimal level for sugar-like flavor: potassium in 1300 mg/L HPS, sodium in 1300 mg/L HPS + 200 mg/L potassium
From the text: The compositions and methods that embody this invention describe how to form electrolyte-enhanced sweetener compositions that better reproduce the flavor of natural sugar with negligible calories and with favorable physical properties. According to these methods, sugar-like flavor was defined by the numerical consensus of four criteria which were sugar-like taste, intensity, thickness, and compatibility and will be described below.
The four criteria were quantified numerically as four percentile scores. Scores of 100% represented the complete and satisfying reproduction of each criterion of sugar-like flavor. For reference, naturally-refined cane sugar received percentile scores of 100% across all criteria because of how the criteria were defined.
Taste (TAS) The criterion of sugar-like taste encompasses how well a sweetener reproduces the taste of sugar at a high level of sweetness corresponding to a 10% sucrose solution. Ten percent sucrose is equivalent to a 12-ounce soft drink (355 milliliters) sweetened with 36 grams of sucrose. For reference, the sweet taste of sugar develops and recedes across the entire tongue with each tasting in a characteristic way. The time profile of sugar's sweetness is something we generally take for granted until we taste a sweetener with a different time profile that makes it taste unnatural and unsatisfying.
According to a preferred embodiment of this invention, the tastes of sweetener compositions (TAS) were compared to 10% sucrose and evaluated based on the following taste and olfactory flavor properties: • 1. Sweetness across the entire tongue and not in throat; • 2. Rapid onset of sweetness without delay; • 3. Rapid decay of sweetness without lingering after-taste; • 4. Sweetness without bitterness; • 5. Subtle caramel flavor without off-flavors.
Intensity (INT) The criterion of sugar-like intensity represents how well a sweetener reproduces the same five taste properties of sugar (represented by TAS) but at a very high level of sweetness typical in desserts. Drinking water sweetened with 20% sucrose is used as a taste reference for evaluating INT.
Thickness (THK) The criterion of sugar-like thickness represents how well a sweetener reproduces the thick texture of sugar-sweetening that becomes syrupy at higher dose levels. Drinking water samples sweetened with 10% sucrose and with 20% sucrose are used as taste references for evaluating THK.
Total (TOT) The consensus of the percentile scores for the four criteria was determined by numerical averaging to form a total score of sugar-like flavor.
The first three criteria for sugar-like flavor—taste TAS, intensity INT, and thickness THK—were evaluated by taste judges who compared water sweetened to a level of either 10% or 20% sucrose to water sweetened with various sweetener compositions. A level of 10% sucrose represents the sweetness of typical soft drinks and 20% sucrose represents the sweetness of typical desserts.
Taste judges initially evaluated the sugar-like taste TAS and thickness THK of sweetener compositions at the sweetness level of typical soft drinks. They rinsed their mouths with plain water and then evaluated a 100 mL sample of 10% sucrose solution. They took a 15 mL aliquot of the sample into the mouth and swished it around for about 15 seconds. For each mouthful, they evaluated the time course of sweetness onset and decay, natural sugar flavors, off-flavors, and thickness, and they expelled the aliquot into a waste receptacle. Judges continued taking a series of mouthfuls up to a total volume of 100 mL to evaluate the changes in flavor perception from one mouthful to the next related to the natural loss of perceived sweetness, flavor, and thickness of sugar solutions. This protocol was then repeated for each 100 mL sample of spring water sweetened with various sweetener compositions. […]

[6] = cool drinking water, without lengthy stirring or heating
From the text: The first salt screen that was employed tested whether each electrolyte salt had sufficient water solubility. The screen tested whether each salt could dissolve sufficiently into cool drinking water and […] without the need for lengthy stirring or heating.

[7] = thick and heavy flavor before saltiness, bitterness or chalkiness

## O=S(=O)([O-])[O-].[Mg+2] [Magnesium Sulfate, magnesium sulfate]
[1]; in vivo
  Does the Electrolyte Salt Have Suitable Taste (TAS)?: NO, Develops sour and dry flavor; also recorded: tasted sour

## O=P([O-])(O)O.[Na+] [Sodium Phosphate Monobasic, sodium phosphate monobasic]
[2]
  Does the Electrolyte Salt have Suitable Shelf Stability?: Yes
[1]; [7]
  Does the Electrolyte Salt Have Suitable Taste (TAS)?: Yes
[3]
  Does the Electrolyte Salt have Suitable Compatibility (CMP)?: NO, Develops sour/chalky flavor
[3]; listed as sodium phosphate monobasic
  Does the Electrolyte Salt have Suitable Compatibility (CMP)?: sour and chalky

## O=C([O-])[O-].[Ca+2] [Calcium Carbonate, calcium carbonate]
[1]; in vivo
  Does the Electrolyte Salt Have Suitable Taste (TAS)?: NO, Develops chalky and dry flavor; also recorded: tasted chalky

## [Cl-].[Cl-].[Mg+2] [Magnesium Chloride, magnesium chloride]
[1]; in vivo
  Does the Electrolyte Salt Have Suitable Taste (TAS)?: Yes

## [Ca+2].[Cl-].[Cl-] [Calcium Chloride, calcium chloride]
[1]; in vivo
  Does the Electrolyte Salt Have Suitable Taste (TAS)?: Yes

## O=C([O-])O.[Na+] [Sodium Bicarbonate, sodium bicarbonate]
[1]; [7]
  Does the Electrolyte Salt Have Suitable Taste (TAS)?: Yes
[3]
  Does the Electrolyte Salt have Suitable Compatibility (CMP)?: NO, Develops sour/chalky flavor
[3]; listed as sodium carbonate
  Does the Electrolyte Salt have Suitable Compatibility (CMP)?: sour and chalky

## CC(O)C(=O)[O-].CC(O)C(=O)[O-].[Ca+2] (stereo not shown) [Calcium Lactate, calcium lactate]
[2]
  Does the Electrolyte Salt have Suitable Shelf Stability?: Yes
[1]; [7]
  Does the Electrolyte Salt Have Suitable Taste (TAS)?: Yes
[3]
  Does the Electrolyte Salt have Suitable Compatibility (CMP)?: NO, Develops sour/chalky flavor
[3]; listed as calcium lactate
  Does the Electrolyte Salt have Suitable Compatibility (CMP)?: sour and chalky

## O=C(CO)[C@@H](O)[C@H](O)[C@H](O)CO [Fructose, fructose]
[4]
  flavor evaluation of carbohydrate candidates: lose its sweetness at higher temperatures

## [Cl-].[K+] [Potassium Chloride, potassium chloride]
[2]
  Does the Electrolyte Salt have Suitable Shelf Stability?: Yes
[5]
  improvement in sugar-like flavor: about 10%
  optimal level for sugar-like flavor: 200 mg/L
[1]; [7]
  Does the Electrolyte Salt Have Suitable Taste (TAS)?: Yes
[3]
  Does the Electrolyte Salt have Suitable Compatibility (CMP)?: Yes
[3]; listed as Potassium chloride
  Does the Electrolyte Salt have Suitable Compatibility (CMP)?: passed
[6]
  Does the Electrolyte Salt Have Suitable Solubility?: Yes

## OC[C@@H](O)[C@@H](O)CO [Erythritol, erythritol]
[4]
  flavor evaluation of carbohydrate candidates: drying sensation on the tongue or cooling sensation on the throat

## [Cl-].[Na+] [Sodium Chloride, sodium chloride]
[5]; HPS 1300 mg/L, potassium 200 mg/L, dietary sodium level of 150 grams per liter (so in the source)
  taste of sweetened, potassium-enriched water with sodium chloride: thick and only mildly salty
[5]; HPS 1300 mg/L, potassium 200 mg/L, sodium level of 600 mg/L
  taste of sweetened, potassium-enhanced water with sodium chloride: unacceptably salty
[5]
  improvement in sugar-like flavor: about 5%
  optimal level for sugar-like flavor: 40 mg/L
[1]; [7]
  Does the Electrolyte Salt Have Suitable Taste (TAS)?: Yes
[3]
  Does the Electrolyte Salt have Suitable Compatibility (CMP)?: Yes
[3]; listed as sodium chloride
  Does the Electrolyte Salt have Suitable Compatibility (CMP)?: passed
